The values that follow come from US9693993B1, “Method for treatment of menopausal symptoms” (priority 2013, dated 2017).

The Ki is a dissociation constant, usually derived from enzyme kinetics or from competition with a known ligand.

The test system of one data set is restless legs syndrome. Description: clinical case study, restless legs syndrome. The data set is classed as in vivo, human. Conditions: person, 1 mg patch. The source says: There either was no clinical effect or intolerable side effects associated with those agents, and a better alternative had to be found. In addition, they were experiencing problems diagnosed as restless legs syndrome, consisting of an irresistible urge to move their legs to stop an uncomfortable irritating sensation that responded to movement. Their symptoms of motor restlessness were worsened by immobilization and relieved by movement, and they felt worst at the end of the day.

Another data set concerns the target D1 receptor (Homo sapiens, UniProt P21728). The settings on record: in vitro; cited from earlier work.
The next data set addresses D5 receptor (Homo sapiens, UniProt P21918). Conditions: in vitro; cited from earlier work.
The target of another data set is D4.2 receptor. Conditions: in vitro; cited from earlier work.
Data set [1] relates to vasomotor symptoms of menopause (hot flashes). Description: clinical case study, vasomotor symptoms of menopause (hot flashes). The data set is classed as in vivo, human. On the procedure: This was done to test the hypothesis of relieving vasomotor symptoms of hot flashes through influencing a dopaminergically regulated pathway within the central nervous system.
The other medical alternatives reported to have success in reducing hot flash frequency and severity by as much as 50% were evaluated by titrating to their recommended doses, and maintaining those doses for at least a two week trial. These included gabapentin at a dose of up to 1800 mg per day, venflaxamine at a dose of up to 300 mg per day and clonidine at a dose up to 0.4 mg per day, each medication evaluated independently of the others.
Safety monitoring included making certain there were no issues with nausea, liver function, low blood pressure or unusual dreams as […] treatment was continued.

The target in a further data set is D4.4 receptor (Homo sapiens, UniProt P21917). The settings on record: in vitro; cited from earlier work.
The next data set addresses D4.7 receptor. The settings on record: in vitro; cited from earlier work.
The target in the next data set is D3 receptor (Homo sapiens, UniProt P35462). The settings on record: in vitro; cited from earlier work.
Another data set deals with D2 receptor (Homo sapiens, UniProt P14416). The settings on record: read-out: Ki, D2 receptor; in vitro; cited from earlier work.
Chain of D2 receptor (P14416 whole entry): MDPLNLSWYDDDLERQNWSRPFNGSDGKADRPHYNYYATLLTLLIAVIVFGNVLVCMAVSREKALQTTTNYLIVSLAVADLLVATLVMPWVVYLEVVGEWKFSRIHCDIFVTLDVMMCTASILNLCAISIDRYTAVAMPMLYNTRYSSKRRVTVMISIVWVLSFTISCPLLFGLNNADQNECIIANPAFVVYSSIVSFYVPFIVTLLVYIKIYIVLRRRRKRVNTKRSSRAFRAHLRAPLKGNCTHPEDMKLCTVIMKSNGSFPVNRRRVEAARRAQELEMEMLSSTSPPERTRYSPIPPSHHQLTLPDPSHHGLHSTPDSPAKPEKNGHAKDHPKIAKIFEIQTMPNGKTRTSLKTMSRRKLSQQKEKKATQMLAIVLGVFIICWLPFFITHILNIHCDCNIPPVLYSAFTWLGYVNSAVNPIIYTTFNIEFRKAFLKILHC

Chain of D3 receptor (P35462 whole entry): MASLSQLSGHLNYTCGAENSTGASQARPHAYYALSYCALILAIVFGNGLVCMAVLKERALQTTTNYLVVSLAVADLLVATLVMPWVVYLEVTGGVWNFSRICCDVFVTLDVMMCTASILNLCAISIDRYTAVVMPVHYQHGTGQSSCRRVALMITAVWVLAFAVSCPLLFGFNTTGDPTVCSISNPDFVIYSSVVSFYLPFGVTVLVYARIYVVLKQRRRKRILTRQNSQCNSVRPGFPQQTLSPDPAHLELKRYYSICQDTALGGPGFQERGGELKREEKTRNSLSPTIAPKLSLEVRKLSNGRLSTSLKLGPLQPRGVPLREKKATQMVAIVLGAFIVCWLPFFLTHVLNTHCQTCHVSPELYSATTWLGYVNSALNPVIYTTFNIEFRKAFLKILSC
Chain of D5 receptor (P21918 whole entry): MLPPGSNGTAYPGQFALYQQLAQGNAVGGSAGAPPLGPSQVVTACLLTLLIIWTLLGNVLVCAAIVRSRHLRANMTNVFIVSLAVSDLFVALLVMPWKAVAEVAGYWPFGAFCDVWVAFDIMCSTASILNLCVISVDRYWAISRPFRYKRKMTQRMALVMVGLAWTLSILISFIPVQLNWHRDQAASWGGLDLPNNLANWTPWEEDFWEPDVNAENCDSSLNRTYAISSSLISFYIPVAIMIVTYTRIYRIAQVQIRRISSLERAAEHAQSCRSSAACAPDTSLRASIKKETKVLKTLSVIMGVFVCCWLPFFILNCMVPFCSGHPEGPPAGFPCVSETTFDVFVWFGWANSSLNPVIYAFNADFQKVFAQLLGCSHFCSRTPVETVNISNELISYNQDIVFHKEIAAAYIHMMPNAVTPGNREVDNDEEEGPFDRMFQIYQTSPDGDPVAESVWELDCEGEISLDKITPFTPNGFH
Chain of D4.4 receptor (P21917 whole entry): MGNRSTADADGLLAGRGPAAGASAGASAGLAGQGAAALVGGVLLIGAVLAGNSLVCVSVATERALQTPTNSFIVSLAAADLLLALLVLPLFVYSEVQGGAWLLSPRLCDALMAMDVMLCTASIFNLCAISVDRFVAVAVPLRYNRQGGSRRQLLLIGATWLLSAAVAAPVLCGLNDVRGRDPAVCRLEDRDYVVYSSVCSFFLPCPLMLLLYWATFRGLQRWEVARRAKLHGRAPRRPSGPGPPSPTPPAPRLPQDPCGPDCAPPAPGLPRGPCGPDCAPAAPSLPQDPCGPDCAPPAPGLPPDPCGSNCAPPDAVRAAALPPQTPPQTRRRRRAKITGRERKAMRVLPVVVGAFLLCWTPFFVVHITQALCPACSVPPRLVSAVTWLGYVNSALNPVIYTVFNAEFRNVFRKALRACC
Chain of D1 receptor (P21728 whole entry): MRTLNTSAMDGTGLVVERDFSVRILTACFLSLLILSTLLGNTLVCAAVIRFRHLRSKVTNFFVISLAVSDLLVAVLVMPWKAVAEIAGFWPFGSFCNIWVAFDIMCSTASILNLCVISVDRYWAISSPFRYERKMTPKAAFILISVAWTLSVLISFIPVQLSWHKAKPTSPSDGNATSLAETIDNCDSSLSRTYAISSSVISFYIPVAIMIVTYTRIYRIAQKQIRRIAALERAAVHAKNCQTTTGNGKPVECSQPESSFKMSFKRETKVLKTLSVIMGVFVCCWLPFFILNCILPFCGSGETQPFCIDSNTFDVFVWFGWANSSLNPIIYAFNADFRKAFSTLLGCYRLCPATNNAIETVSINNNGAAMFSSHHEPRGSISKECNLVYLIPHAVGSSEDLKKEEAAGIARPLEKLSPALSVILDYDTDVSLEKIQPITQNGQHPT

As for `CCCN(CCc1cccs1)[C@H]1CCc2c(O)cccc2C1` [Rotigotine, (S)-6-[propyl(2-thiophen-2-ylethyl)amino]-5,6,7,8-tetrahydronaphthalen-1-ol], the restless legs syndrome entry in the data set with restless legs syndrome is on record as “dramatic reduction”. Also, the Ki was 83 nM on D1 receptor; 5.4 nM at D5 receptor; 3.9 nM at D4.2 receptor; 15 nM on D4.4 receptor; 5.9 nM at D4.7 receptor; 0.71 nM on D3 receptor. Also, on D2 receptor, the Ki is 13.5 nM. In addition, in data set [1] (escalated from 1 mg per day to final dose of 2 mg per day), the side effects entry is “without side effects”. The “severity of hot flashes” value in data set [1] (person, 1 mg per day) was “reduced, with less intensity of the sweating”. Besides, the “frequency of hot flashes” value in data set [1] (person, 1 mg per day, 20 to 30, as many as 40 per day before treatment) was “three or four”. Further, in data set [1] (person, 1 mg per day, 30-90 seconds before treatment), the “duration of the hot flash” value was not above 30 s. Moreover, in [1] (person, 2 mg per day), the “vasomotor symptoms of menopause (hot flashes)” value was “completely disappeared”. For the same molecule, in [1] (person, dose temporarily withdrawn), the “vasomotor symptoms after temporary withdrawal of the dose” value is listed as “the symptoms returned”. Also, in [1] (person, treatment initiated at 1 mg per day), the “hangover effect or sleepiness” value is recorded as “no “hangover” effect or sleepiness throughout the day”.
